Where a name gives a salt, the structure may show the parent alone.
Tests used:
human factor XIa = target: T1, human factor XIa (Homo sapiens, UniProt P03951); assay: Measurement of FXIa inhibition (fluorogenic peptide substrate Boc-Glu(OBzl)-Ala-Arg-AMC); format: biochemical; settings: factor XIa from Kordia 0.45 nM; 15 min preincubation; 30 min at 22° C.; fluorescence of AMC
T1 construct: purchased Kordia
Experimental: a.1) Measurement of FXIa Inhibition
The factor XIa inhibition of the substances according to the invention is determined using a biochemical test system which utilizes the reaction of a peptidic factor XIa substrate to determine the enzymatic activity of human factor XIa. Here, factor XIa cleaves from the peptic factor XIa substrate the C-terminal aminomethylcoumarin (AMC), the fluorescence of which is measured. The determinations are carried out in microtitre plates.
Test substances are dissolved in dimethyl sulphoxide and serially diluted in dimethyl sulphoxide (3000 μM to 0.0078 μM; resulting final concentrations in the test: 50 μM to 0.00013 μM). In each case 1 μl of the diluted substance solutions is placed into the wells of white microtitre plates from Greiner (384 wells). Subsequently, the following are added successively: 20 μl of assay buffer (50 mmol/l Tris buffer pH 7.4; 100 mmol/l sodium chloride; 5 mmol/l calcium chloride; 0.1% bovine serum albumin) and 20 μl of factor XIa from Kordia (0.45 nM in assay buffer). After 15 min of incubation, the enzyme reaction is started by addition of 20 μl of the factor XIa substrate Boc-Glu(OBzl)-Ala-Arg-AMC dissolved in assay buffer (10 μM in assay buffer) from Bachem, the mixture is incubated at room temperature (22° C.) for 30 min and fluorescence is then measured (excitation: 360 nm, emission: 460 nm). The measured emissions of the test batches with test substance are compared to those of control batches without test substance (only dimethyl sulphoxide instead of test substance in dimethyl sulphoxide), and IC50 values are calculated from the concentration/activity relationships.

plasma = assay: Determination of anticoagulatory activity: activated partial thromboplastin time (aPTT) in plasma; settings: in vitro in human and animal plasma (species of Table B not stated); C.K. Prest kit; 37° C., 3 minutes incubation
Experimental: a.4) Determination of Anticoagulatory Activity
The anticoagulatory activity of the test substances is determined in vitro in human and animal plasma (for example mouse, rat, rabbit, pig and dog plasma). To this end, blood is drawn off in a mixing ratio of sodium citrate/blood of 1:9 using a 0.11 molar sodium citrate solution as receiver. Immediately after the blood has been drawn off, it is mixed thoroughly and centrifuged at about 4000 g for 15 minutes. The supernatant is pipetted off.
The activated partial thromboplastin time (aPTT) is determined in the presence of varying concentrations of test substance or the corresponding solvent using a commercial test kit (C.K. Prest from Diagnostica Stago). The test compounds are incubated with the plasma and the PTT reagent (cephalin, kaolin) at 37° C. for 3 minutes. Coagulation is then started by addition of a 25 mM aqueous calcium chloride solution, and the time when coagulation occurs is determined. The concentration of test substance which brings about a 1.5-fold extension of the aPTT is determined.

T1 sequence (P03951 388-625 limits assumed): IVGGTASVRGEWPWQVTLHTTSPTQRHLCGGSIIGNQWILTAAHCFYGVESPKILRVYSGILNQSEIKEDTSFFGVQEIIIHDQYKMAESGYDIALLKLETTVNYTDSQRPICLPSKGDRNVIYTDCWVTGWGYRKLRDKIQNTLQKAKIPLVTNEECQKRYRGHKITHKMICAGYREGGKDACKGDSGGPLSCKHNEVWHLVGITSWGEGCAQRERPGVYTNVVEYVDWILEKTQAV
T1 sequence (P03951 19-387 partner limits assumed): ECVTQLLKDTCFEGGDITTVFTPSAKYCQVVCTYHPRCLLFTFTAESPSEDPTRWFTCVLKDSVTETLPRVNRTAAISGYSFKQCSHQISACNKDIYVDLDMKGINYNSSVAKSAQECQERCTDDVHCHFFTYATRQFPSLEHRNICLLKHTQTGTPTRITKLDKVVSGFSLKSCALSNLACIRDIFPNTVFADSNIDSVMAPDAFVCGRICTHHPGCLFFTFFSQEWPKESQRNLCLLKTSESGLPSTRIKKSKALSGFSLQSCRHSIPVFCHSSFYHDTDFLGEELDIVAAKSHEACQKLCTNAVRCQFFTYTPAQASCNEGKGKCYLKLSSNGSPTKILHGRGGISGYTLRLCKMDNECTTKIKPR

IC50 (human factor XIa): 1.2 nM
Structure (SMILES): CC(C)Oc1ccccc1-c1ccc(C[C@H](NC(=O)[C@H]2CC[C@H](CN)CC2)C(=O)Nc2ccc(-c3nc(C(F)(F)C(F)(F)C(=O)O)n[nH]3)cc2)cc1 [Example 17, 3-[5-(4-{[(2S)-2-({[trans-4-(Aminomethyl)cyclohexyl]carbonyl}amino)-3-(2′-isopropoxybiphenyl-4-yl)propanoyl]amino}phenyl)-1H-1,2,4-triazol-3-yl]-2,2,3,3-tetrafluoropropanoic acid hydrochloride]
aPTT (concentration of test substance which brings about a 1.5-fold extension of the aPTT) (plasma): 0.22 µmol/L
